#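 Step 1: Grow cells in 96-well plates. Step 2: Expose to compound for 48 hours at 5 concentrations. Step 3: Interpolate endpoints linearly; if unreached, use highest concentration. At the GI50, growth is halved.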 Calls of active or inactive are those of the source. No stated cut-off is given here; in the data, active = GI50 up to about 1.1 µM and inactive = higher.
# Columns and labels:
# Assay in all cases: DTP human tumour cell line panel, 48 h
# [1] = system: EKVX
# [2] = system: M14
# [3] = system: OVCAR-3
# [4] = system: OVCAR-5
# [5] = system: KM12
# [6] = system: DU-145
# [7] = system: CAKI-1
# [8] = system: OVCAR-8
# [9] = system: UACC-257
# [10] = system: BT-549
# [11] = system: UO-31
# [12] = system: K562
# [13] = system: SN12C
# [14] = system: T47D
# [15] = system: NCI/ADR-RES
# [16] = system: MDA-MB-231
# [17] = system: Malme-3M
# [18] = system: TK-10
# [19] = system: NCI-H522
# [20] = system: SW-620
# [21] = system: OVCAR-4
# [22] = system: HL-60
# [23] = system: 786-0
# [24] = system: SK-MEL-5
# [25] = system: COLO 205
# [26] = system: HCT-15
# [27] = system: MDA-N
# [28] = system: LOX IMVI
# [29] = system: A498
# [30] = system: SNB-75
# [31] = system: U-251
# [32] = system: SK-MEL-28
# [33] = system: HT-29
# [34] = system: HCT-116
# [35] = system: NCI-H226
# [36] = system: RPMI-8226
# [37] = system: HCC 2998
# [38] = system: SNB-19
# [39] = system: HOP-92
# [40] = system: SF-295
# [41] = system: UACC-62
# [42] = system: SK-OV-3
# [43] = system: NCI-H460
# [44] = system: Hs-578T
# [45] = system: SR
# [46] = system: HOP-62
# [47] = system: MDA-MB-435
# [48] = system: ACHN
# [49] = system: NCI-H23
# [50] = system: SF-539
# [51] = system: CCRF-CEM
smiles,measurement,setting,value
CC(=O)NC1C(OCc2ccccc2)OC(CO)C(O)C1OCC(=O)N[C@@H](C)C(=O)N[C@H](CCC(=O)NCCNc1ccc([N+](=O)[O-])c2[nH]c3ccccc3c(=O)c12)C(N)=O (stereo partly specified),GI50,[1],20.8 µM (inactive)
same,GI50,[2],60.3 µM (inactive)
same,GI50,[3],36.7 µM (inactive)
same,GI50,[4],37.2 µM (inactive)
same,GI50,[5],20.1 µM (inactive)
same,GI50,[6],33.4 µM (inactive)
same,GI50,[7],29.9 µM (inactive)
same,GI50,[8],18.2 µM (inactive)
same,GI50,[9],22.1 µM (inactive)
same,GI50,[10],20.1 µM (inactive)
same,GI50,[11],13.8 µM (inactive)
same,GI50,[12],58.9 µM (inactive)
same,GI50,[13],27.4 µM (inactive)
same,GI50,[14],57 µM (inactive)
same,GI50,[15],21.6 µM (inactive)
same,GI50,[16],28.1 µM (inactive)
same,GI50,[17],84.5 µM (inactive)
same,GI50,[18],15.4 µM (inactive)
same,GI50,[19],7.62 µM (inactive)
same,GI50,[20],7.74 µM (inactive)
same,GI50,[21],23.3 µM (inactive)
same,GI50,[22],54.7 µM (inactive)
same,GI50,[23],18.7 µM (inactive)
same,GI50,[24],24.8 µM (inactive)
same,GI50,[25],15.9 µM (inactive)
same,GI50,[26],13.5 µM
same,GI50,[27],27.9 µM (inactive)
same,GI50,[28],25.9 µM (inactive)
same,GI50,[29],24 µM (inactive)
same,GI50,[30],22.8 µM (inactive)
same,GI50,[31],29.5 µM (inactive)
same,GI50,[32],33.2 µM (inactive)
same,GI50,[33],19.4 µM (inactive)
same,GI50,[34],6.56 µM (inactive)
same,GI50,[35],12.8 µM (inactive)
same,GI50,[36],23 µM (inactive)
same,GI50,[37],10.9 µM (inactive)
same,GI50,[38],23 µM (inactive)
same,GI50,[39],21.6 µM (inactive)
same,GI50,[40],37.4 µM (inactive)
same,GI50,[41],18.7 µM (inactive)
same,GI50,[42],81.5 µM (inactive)
same,GI50,[43],8.99 µM (inactive)
same,GI50,[44],71.9 µM (inactive)
same,GI50,[45],58.7 µM (inactive)
same,GI50,[46],36.3 µM (inactive)
same,GI50,[47],22.4 µM (inactive)
same,GI50,[48],12.1 µM (inactive)
same,GI50,[49],32.3 µM (inactive)
same,GI50,[50],2.21 µM (inactive)
same,GI50,[51],67.6 µM (inactive)

# From ChEMBL document CHEMBL1201862, “PubChem BioAssay data set” (2004)
